Patent US6426405B2, “Neurotransmitter transporter SC6” (SmithKline Beecham P.L.C., priority 1998, dated 2002)

Biological target: T1, SC6 (GlyT-2 transporter) (Homo sapiens, UniProt Q9Y345)
T1 sequence (Q9Y345 1-797 F124S/A162G/Q184R/D463N/I735T/V751A): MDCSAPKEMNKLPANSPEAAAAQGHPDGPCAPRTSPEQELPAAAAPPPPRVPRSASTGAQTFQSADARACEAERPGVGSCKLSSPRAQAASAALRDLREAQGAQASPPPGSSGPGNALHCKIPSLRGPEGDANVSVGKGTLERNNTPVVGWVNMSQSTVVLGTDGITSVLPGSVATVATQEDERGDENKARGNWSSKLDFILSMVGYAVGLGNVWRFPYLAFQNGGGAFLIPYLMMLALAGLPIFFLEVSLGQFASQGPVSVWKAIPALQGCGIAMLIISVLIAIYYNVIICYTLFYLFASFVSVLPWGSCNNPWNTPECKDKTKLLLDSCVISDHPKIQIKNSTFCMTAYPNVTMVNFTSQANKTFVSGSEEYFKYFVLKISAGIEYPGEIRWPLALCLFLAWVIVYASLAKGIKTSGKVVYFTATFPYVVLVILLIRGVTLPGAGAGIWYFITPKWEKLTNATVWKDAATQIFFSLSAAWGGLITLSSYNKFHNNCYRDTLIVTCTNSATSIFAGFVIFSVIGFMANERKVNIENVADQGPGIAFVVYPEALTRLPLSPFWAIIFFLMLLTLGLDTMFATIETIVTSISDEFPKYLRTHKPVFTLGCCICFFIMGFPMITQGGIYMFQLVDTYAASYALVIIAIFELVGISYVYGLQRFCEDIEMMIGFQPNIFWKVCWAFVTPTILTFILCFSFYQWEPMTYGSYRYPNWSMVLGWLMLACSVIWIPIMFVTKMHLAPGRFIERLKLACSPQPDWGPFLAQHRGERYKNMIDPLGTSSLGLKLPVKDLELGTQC
Test: [3H]-glycine uptake assay in HEK-293 cells transiently transfected with SC6
Details: 1 mM test substance, 1 μM [3H]-glycine, alanine (5 mM) present, HEK-293 cells transfected with SC6, 37° C.

SMILES	effect on [3H]-glycine uptake
CNCC(=O)O [sarcosine]	not significantly affected
NCC(=O)O [glycine]	almost totally blocked
